The text below walks through data of US10890577B2, “Treatment methods having reduced drug-related toxicity and methods of identifying the likelihood of patient harm from prescribed medications” (TABULA RASA HEALTHCARE, INC., priority 2016, dated 2021).

Data set [1] has as its target L-type Ca^2+ currents (Homo sapiens, UniProt Q13936). The conditions noted are these: cited from earlier work.
The target in data set [2] is IKs (Homo sapiens, UniProt P51787). Conditions: cited from earlier work.
Data set [3] addresses IKr (Homo sapiens, UniProt Q12809). Conditions: cited from earlier work.
For data set [4] the following is noted: in vivo; cited from earlier work.
The target of data set [5] is CYP2D6 (Homo sapiens, UniProt P10635). The conditions noted are these: in vivo; cited from earlier work.
The conditions of data set [6]: CYP2D6 inhibited; 100/(100-MP); over the course of multiple doses.
The subject of data set [7] is QTc interval. Conditions: positive control; cited from earlier work.
For data set [8] the following is noted: value inserted in K1 equation; read-out: Cmax of the drug at a test dose; cited from earlier work.
The conditions of data set [9]: value inserted in K1 equation as (100-97)/100; cited from earlier work.

Chain of IKr (Q12809 whole entry): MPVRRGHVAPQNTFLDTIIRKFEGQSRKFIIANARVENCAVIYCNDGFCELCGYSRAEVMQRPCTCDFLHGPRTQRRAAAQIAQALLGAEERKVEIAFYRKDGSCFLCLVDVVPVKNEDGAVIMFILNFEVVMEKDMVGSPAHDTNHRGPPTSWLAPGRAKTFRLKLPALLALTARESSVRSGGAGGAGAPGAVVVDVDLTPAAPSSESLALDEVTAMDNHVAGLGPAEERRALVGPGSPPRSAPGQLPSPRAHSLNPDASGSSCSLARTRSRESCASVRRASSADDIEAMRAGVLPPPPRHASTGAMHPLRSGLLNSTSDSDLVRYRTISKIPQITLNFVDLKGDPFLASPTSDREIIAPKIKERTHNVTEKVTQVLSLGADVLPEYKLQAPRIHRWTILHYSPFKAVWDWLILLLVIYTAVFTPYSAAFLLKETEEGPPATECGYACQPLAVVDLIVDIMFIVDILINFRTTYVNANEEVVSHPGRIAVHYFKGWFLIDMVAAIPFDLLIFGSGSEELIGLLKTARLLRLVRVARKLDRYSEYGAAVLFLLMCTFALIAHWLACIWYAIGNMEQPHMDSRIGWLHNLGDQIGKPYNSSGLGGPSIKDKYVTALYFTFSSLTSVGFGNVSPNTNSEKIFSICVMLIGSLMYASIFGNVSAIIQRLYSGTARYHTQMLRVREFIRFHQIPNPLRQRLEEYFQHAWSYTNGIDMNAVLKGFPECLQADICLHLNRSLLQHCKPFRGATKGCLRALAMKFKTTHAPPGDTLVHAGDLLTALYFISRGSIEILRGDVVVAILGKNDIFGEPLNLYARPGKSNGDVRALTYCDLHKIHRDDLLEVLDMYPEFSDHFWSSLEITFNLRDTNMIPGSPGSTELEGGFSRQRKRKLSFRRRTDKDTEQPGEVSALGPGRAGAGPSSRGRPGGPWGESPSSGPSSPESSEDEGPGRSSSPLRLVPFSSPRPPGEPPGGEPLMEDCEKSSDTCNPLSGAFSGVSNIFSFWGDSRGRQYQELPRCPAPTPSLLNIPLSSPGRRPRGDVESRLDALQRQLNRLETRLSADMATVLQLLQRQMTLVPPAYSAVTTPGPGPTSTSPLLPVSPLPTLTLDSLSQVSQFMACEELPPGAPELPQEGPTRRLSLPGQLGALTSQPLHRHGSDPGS
Chain of CYP2D6 (P10635 whole entry): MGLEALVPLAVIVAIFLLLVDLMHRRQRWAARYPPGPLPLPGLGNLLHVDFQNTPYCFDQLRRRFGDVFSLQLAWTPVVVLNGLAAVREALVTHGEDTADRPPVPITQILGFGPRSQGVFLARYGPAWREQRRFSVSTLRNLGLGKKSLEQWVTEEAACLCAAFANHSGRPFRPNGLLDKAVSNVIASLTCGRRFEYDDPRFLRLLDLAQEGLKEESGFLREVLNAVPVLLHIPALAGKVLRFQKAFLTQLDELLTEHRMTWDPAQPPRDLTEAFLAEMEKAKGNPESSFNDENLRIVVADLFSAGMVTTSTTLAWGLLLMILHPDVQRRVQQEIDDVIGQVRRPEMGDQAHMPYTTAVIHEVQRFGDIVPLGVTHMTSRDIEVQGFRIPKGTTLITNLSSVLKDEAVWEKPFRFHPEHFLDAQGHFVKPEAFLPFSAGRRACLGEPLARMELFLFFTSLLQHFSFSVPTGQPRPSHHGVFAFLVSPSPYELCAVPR

Regarding `CCCCc1oc2ccccc2c1C(=O)c1cc(I)c(OCCN(CC)CC)c(I)c1` [Amiodarone], the “block of L-type Ca2+ currents” value in data set [1] is “blocks L-type Ca^2+ currents”.

`CC1Cc2ccccc2N1NC(=O)c1ccc(Cl)c(S(N)(=O)=O)c1` (centres unmarked) [Indapamide]: in [2], the “block of IKs” value is “inhibit IKs”.

For the compound `COc1ccccc1OCC(O)CN1CCN(CC(=O)Nc2c(C)cccc2C)CC1` (centres unmarked) [Ranolazine], the “block of IKr” value in data set [3] is given as “blocks IKr”.

Take `Cc1cccc(C)c1OCC(C)N` (centres unmarked) [mexiletine]: the “F (bioavailability)” value in [4] is 95%. For the same compound, the “cleared by CYP2D6” value in data set [5] was 75%. In data set [6], this compound had an increase in concentration of about 4 fold.

`COc1c(N2C[C@@H]3CCCN[C@@H]3C2)c(F)cc2c(=O)c(C(=O)O)cn(C3CC3)c12` [moxifloxacin]: the “QT prolongation added to the QTc interval” value in [7] is on record as 7-10 milliseconds.

With `CC(C)(C)c1ccc(C(O)CCCN2CCC(C(O)(c3ccccc3)c3ccccc3)CC2)cc1` (centres unmarked) [terfenadine], in [8], the highest concentration (Cmax) is 3.18 nM. For the same compound, the “Protein binding of the drug” value in [9] was 97%.

As for `Nc1nc(N)c2nc(-c3ccccc3)c(N)nc2n1` [triamterene], in [2], the “block of IKs” value is given as “significant block”. Besides, the “block of IKr” value in data set [3] is recorded as “significant block”.

The term Cmax denotes the maximum level reached in the sampled fluid or tissue.
